{
  "source": "patent US20250109127A1",
  "about": "“METHODS OF USE OF PHENOXYPROPYLAMINE COMPOUNDS TO TREAT DEPRESSION” (Minerva Neurosciences, Inc., priority 2013, published 2025)",
  "test_system": "5-HIAA release in the rat prefrontal cortex",
  "assay": "Microdialysis: 5-HIAA release in prefrontal cortex after I.P. administration",
  "type": "in vivo",
  "conditions": "for 5-HIAA release, MEAN / 5-HIAA release, individual animals: 0.3 mg/kg I.P.; for 5-HIAA release, MEAN: n = 8; for 5-HIAA release, individual animals: one column per animal R#11,12,18,23,29,30,17,24, hydrochloride; for levels of 5-HIAA compared to the citalopram treated group (significant): SON-117 0.1 mg/kg",
  "description": "The aim of the study was to evaluate, using microdialysis, the effects of an intraperitoneal (I.P.) administration in rats of three different doses of SON-117 on dopamine and its metabolites, serotonin and its metabolite (5-HIAA), and norepinephrine levels in prefrontal cortex.\nThirty-two adult male Wistar rats were used for the whole study (4 groups of eight animals planned for the study, Table 1).\nSurgery was performed on rats weighing about 300 g at the beginning of the experiments. Rats were anaesthetized with Ketamine (50 mg/kg) & Xylazine (15 mg/kg) by intramuscular administration. The animals were placed in a stereotaxic apparatus in the flat-skull position at a constant setting of −3.3 mm between ear bars and the incisor bar. The animals were treated with a local anesthesic (xylocaine 1%, Astra Zeneca) and an analgesic (Temgesic, from Schering Plough, 0.05 mg/kg, s.c.). A rostrocaudal midline incision was made with a lancet to expose the dorsal skull surface. The “stereotaxic zero” was defined by the Bregma in accordance with Paxinos and Watson's atlas (1986). A hole was drilled in the skull with a drill and the meninges were pierced with a sterile needle to implant a CMA12 guide cannula which later received the dialysis probe.\nCoordinates used for implanting guide cannula in prefrontal cortex from Bregma were anteroposterior 3.7 mm, mediolateral 0.8 mm, and dorsoventral −2 mm (top of the probe was at −5 mm). The guide cannula was fixed to the skull with two stainless steel screws (1.88 mm outside diameter) anchored. An application of dental cement was added. A plastic collar allowed each animal to be tethered to a Swivel assembly of the CMA 120 awake animal system. Following surgery, rats were kept in individual cages and allowed to recover for a minimum of 3-5 days before the experimentation. The rats were handled and put in plastic bowl for 10 min at least every day to habituate the animals to their new environment for the dialysis. An I.P. administration with saline was also performed every day.\nDialysis probes (CMA12/3 mm, membrane, 20 kD cut-off, Carnegie Medicine, Stockholm, Sweden), were carefully washed before inserting into the guide cannula. The wash was performed with the artificial cerebrospinal fluid (aCSF) medium (NaCl 147 mM, KCl 2.7 mM, CaCl2 1.2 mM, MgCl2 0.85 mM) at room temperature. The dialysis system was then equilibrated at 20° C. at a perfusion rate of 1 μl/min with a Carnegie pump (CMA100). All catheters (FEP tubing, internal volume of 1.2 μl/10 cm, and tubing adaptors) used for microdialysis were treated in the same conditions.\nThe probes duly prepared were inserted into the guide cannula and the CMA120 Swivel assembly secured to the animal using a plastic collar. Flow through the dialysis probe with aCSF was maintained at a rate of 1 μl/min during the whole experimentation. The first four fractions (corresponding to 2 hours) were discarded to avoid the effects of parenchymal disturbance and to ensure that an approximate steady-state level was reached. Fractions were then collected over a period of 8.5 h during which time the animals remained quiet. The dialysates were automatically collected with an autosampler (microfraction collector CMA 140, Carnegie Medicin) and stored at −80° C. until analysis. […] Perfusion was then maintained for 7 hours with aCSF. The dialysates (30 μl) were collected into 300 μl vials, transferred into dry ice and then kept frozen (−80° C.) until analysis. Frozen samples were shipped to a partner for analysis. At the end of the microdialysis study, a PBS with colored ink was perfused through the probe in order to visualize the dialyzed area.\nCatecholamine assay: Concentrations of dopamine, DOPAC, HVA, 5-HIAA, 5-HT, and norepinephrin were determined for each sample by HPLC coupled with electrochemical detection.",
  "note": "“And” between values parts separate entries of the source, which are not always exact repeats. Identical values can stand only once. Counter-ions that a name gives are not always drawn.",
  "data": [
    {"smiles": "Cc1nnc(-c2cc3c(OC[C@@H](O)CN4CCC(c5ccc(Cl)c(Cl)c5)CC4)cccc3o2)o1", "note": "[SON-117, (S)-1-(4-(3,4-dichlorophenyl)piperidino)-3-(2-(5-methyl-1,3,4-oxadiazol-2-yl)benzo(b)furan-4-yloxy)-2-propanol hydrochloride]", "values": [
      {"measurement": "5-HIAA release, MEAN", "setting": "T3 h 30-T4 h", "value": "86.84 % of respective basal"},
      {"measurement": "5-HIAA release, individual animals", "setting": "T3 h 30-T4 h", "value": "84.27 % of respective basal and 78.82 % of respective basal and 113.26 % of respective basal and 50.70 % of respective basal and 79.10 % of respective basal and 97.98 % of respective basal and 103.77 % of respective basal"},
      {"measurement": "5-HIAA release, MEAN", "setting": "T3 h-T3 h 30", "value": "85.23 % of respective basal"},
      {"measurement": "5-HIAA release, individual animals", "setting": "T3 h-T3 h 30", "value": "91.97 % of respective basal and 87.81 % of respective basal and 101.16 % of respective basal and 49.70 % of respective basal and 76.51 % of respective basal and 101.56 % of respective basal and 87.92 % of respective basal"},
      {"measurement": "5-HIAA release, MEAN", "setting": "T4 h 30-T5 h", "value": "79.56 % of respective basal"},
      {"measurement": "5-HIAA release, individual animals", "setting": "T4 h 30-T5 h", "value": "106.09 % of respective basal and 92.34 % of respective basal and 55.38 % of respective basal and 93.00 % of respective basal and 34.98 % of respective basal and 60.78 % of respective basal and 97.49 % of respective basal and 96.40 % of respective basal"},
      {"measurement": "5-HIAA release, MEAN", "setting": "T4 h-T4 h 30", "value": "83.02 % of respective basal"},
      {"measurement": "5-HIAA release, individual animals", "setting": "T4 h-T4 h 30", "value": "101.39 % of respective basal and 87.58 % of respective basal and 68.33 % of respective basal and 105.89 % of respective basal and 46.22 % of respective basal and 58.28 % of respective basal and 100.16 % of respective basal and 96.30 % of respective basal"},
      {"measurement": "5-HIAA release, MEAN", "setting": "T5 h 30-T6 h", "value": "76.13 % of respective basal"},
      {"measurement": "5-HIAA release, individual animals", "setting": "T5 h 30-T6 h", "value": "99.18 % of respective basal and 83.12 % of respective basal and 47.00 % of respective basal and 91.59 % of respective basal and 31.98 % of respective basal and 58.90 % of respective basal and 95.96 % of respective basal and 101.31 % of respective basal"},
      {"measurement": "5-HIAA release, MEAN", "setting": "T5 h-T5 h 30", "value": "70.00 % of respective basal"},
      {"measurement": "5-HIAA release, individual animals", "setting": "T5 h-T5 h 30", "value": "36.17 % of respective basal and 102.81 % of respective basal and 51.02 % of respective basal and 88.56 % of respective basal and 33.58 % of respective basal and 69.56 % of respective basal and 91.58 % of respective basal and 86.71 % of respective basal"},
      {"measurement": "5-HIAA release, MEAN", "setting": "T6 h 30-T7 h", "value": "77.53 % of respective basal"},
      {"measurement": "5-HIAA release, individual animals", "setting": "T6 h 30-T7 h", "value": "93.10 % of respective basal and 92.17 % of respective basal and 48.56 % of respective basal and 102.17 % of respective basal and 26.99 % of respective basal and 69.28 % of respective basal"},
      {"measurement": "5-HIAA release, MEAN", "setting": "T6 h-T6 h 30", "value": "75.56 % of respective basal"},
      {"measurement": "5-HIAA release, individual animals", "setting": "T6 h-T6 h 30", "value": "95.37 % of respective basal and 79.54 % of respective basal and 45.32 % of respective basal and 101.94 % of respective basal and 31.32 % of respective basal and 69.73 % of respective basal and 87.93 % of respective basal and 93.33 % of respective basal"},
      {"measurement": "5-HIAA release, MEAN", "setting": "T-30 min-T0 (before administration)", "value": "101.34 % of respective basal"},
      {"measurement": "5-HIAA release, MEAN", "setting": "T-1 h 30-T-1 h (before administration)", "value": "96.20 % of respective basal"},
      {"measurement": "5-HIAA release, MEAN", "setting": "T-1 h-T-30 min (before administration)", "value": "102.47 % of respective basal"},
      {"measurement": "5-HIAA dialysate levels vs mean pre-administration value", "setting": "SON-117 0.1 mg/kg I.P.", "value": "no statistically significant differences"},
      {"measurement": "levels of 5-HIAA compared to the citalopram treated group (significant)", "setting": "at 0.5 h", "value": "lower"},
      {"measurement": "levels of 5-HIAA compared to the citalopram treated group (significant)", "setting": "at 4.5 h, 5 h, 6.5 h", "value": "higher"},
      {"measurement": "5-HIAA concentrations in prefrontal cortex, change", "setting": "SON-117 0.3 mg/kg IP, at 3.5 h and from 4.5 h to 7 h", "value": "significant and stable slight decrease"},
      {"measurement": "5-HIAA, difference to the citalopram group", "setting": "SON-117 0.3 mg/kg, in function of time", "value": "no significant difference"}
    ]}
  ]
}
